Experimental data reported in ChEMBL document CHEMBL5096203, “Discovery of 6-[(3S,4S)-4-Amino-3-methyl-2-oxa-8-azaspiro[4.5]decan-8-yl]-3-(2,3-dichlorophenyl)-2-methyl-3,4-dihydropyrimidin-4-one (IACS-15414), a Potent and Orally Bioavailable SHP2 Inhibitor” (J Med Chem, 2021).
Values belong to the compound of their own block, whether it stands above or below them.

Legend:
[1] = Oral bioavailability in CD-1 mouse measured at 0.083 to 24 hrs by LC-MS/MS analysis; type: ADME, organism-based; settings: in vivo, time 0.083-24 hrs
[2] = Volume of distribution at steady state in Cynomolgus monkey measured at 0.083 to 24 hrs by LC-MS/MS analysis; type: ADME, Macaca fascicularis; settings: in vivo, time 0.083-24 hrs, read-out: Vdss
[3] = Clearance in iv dosed CD-1 mouse measured at 0.083 to 24 hrs by LC-MS/MS analysis; type: ADME, organism-based; settings: in vivo, time 0.083-24 hrs
[4] = Half life in iv dosed Cynomolgus monkey measured at 0.083 to 24 hrs by LC-MS/MS analysis; type: ADME, organism-based, Macaca fascicularis; settings: in vivo, time 0.083-24 hrs
[5] = Volume of distribution at steady state in Beagle dog measured at 0.083 to 24 hrs by LC-MS/MS analysis; type: ADME, Canis lupus familiaris; settings: in vivo, time 0.083-24 hrs, read-out: Vdss
[6] = Oral bioavailability in Cynomolgus monkey measured at 0.083 to 24 hrs by LC-MS/MS analysis; type: ADME, organism-based, Macaca fascicularis; settings: in vivo, time 0.083-24 hrs
[7] = Metabolic stability in rat microsome assessed as intrinsic clearance incubated for 45 mins in presence of NADPH regenerating system by LC-MS/MS analysis; type: ADME; settings: microsomes
[8] = Volume of distribution at steady state in Sprague-Dawley rat measured at 0.083 to 24 hrs by LC-MS/MS analysis; type: ADME; settings: in vivo, time 0.083-24 hrs, read-out: Vdss
[9] = Volume of distribution at steady state in CD-1 mouse measured at 0.083 to 24 hrs by LC-MS/MS analysis; type: ADME; settings: in vivo, time 0.083-24 hrs, read-out: Vdss
[10] = Half life in iv dosed Beagle dog measured at 0.083 to 24 hrs by LC-MS/MS analysis; type: ADME, organism-based, Canis lupus familiaris; settings: in vivo, time 0.083-24 hrs
[11] = Metabolic stability in Beagle dog microsome assessed as intrinsic clearance incubated for 45 mins in presence of NADPH regenerating system by LC-MS/MS analysis; type: ADME, Canis lupus familiaris; settings: microsomes, read-out: CLH
[12] = Metabolic stability in mouse microsome assessed as intrinsic clearance incubated for 45 mins in presence of NADPH regenerating system by LC-MS/MS analysis; type: ADME; settings: microsomes, read-out: CLH
[13] = Half life in iv dosed Sprague-Dawley rat measured at 0.083 to 24 hrs by LC-MS/MS analysis; type: ADME, organism-based; settings: in vivo, time 0.083-24 hrs
[14] = Clearance in iv dosed Beagle dog measured at 0.083 to 24 hrs by LC-MS/MS analysis; type: ADME, organism-based, Canis lupus familiaris; settings: in vivo, time 0.083-24 hrs
[15] = Permeability of compound across basolateral to apical side in dog MDCK-MDR1 cells; type: ADME, cell-based, Canis lupus familiaris
[16] = Metabolic stability in monkey microsome assessed as intrinsic clearance incubated for 45 mins in presence of NADPH regenerating system by LC-MS/MS analysis; type: ADME, Macaca mulatta; settings: rhesus monkey, microsomes, read-out: CLH
[17] = Metabolic stability in human microsome assessed as intrinsic clearance incubated for 45 mins in presence of NADPH regenerating system by LC-MS/MS analysis; type: ADME; settings: microsomes
[18] = Clearance in iv dosed Cynomolgus monkey measured at 0.083 to 24 hrs by LC-MS/MS analysis; type: ADME, organism-based, Macaca fascicularis; settings: in vivo, time 0.083-24 hrs
[19] = Oral bioavailability in Beagle dog measured at 0.083 to 24 hrs by LC-MS/MS analysis; type: ADME, organism-based, Canis lupus familiaris; settings: in vivo, time 0.083-24 hrs
[20] = Permeability of compound across apical to basolateral side in dog MDCK-MDR1 cells; type: ADME, cell-based, Canis lupus familiaris
[21] = Half life in iv dosed CD-1 mouse measured at 0.083 to 24 hrs by LC-MS/MS analysis; type: ADME, organism-based; settings: in vivo, time 0.083-24 hrs
[22] = Oral bioavailability in […] Sprague-Dawley rat measured at 0.083 to 24 hrs by LC-MS/MS analysis; type: ADME, organism-based; settings: in vivo, time 0.083-24 hrs
[23] = Clearance in iv dosed Sprague-Dawley rat measured at 0.083 to 24 hrs by LC-MS/MS analysis; type: ADME, organism-based; settings: in vivo, time 0.083-24 hrs
[24] = Volume of distribution at steady state in Sprague-Dawley rat 3 mg/kg, po or 3 mg/kg, iv measured at 0.083 to 24 hrs by LC-MS/MS analysis; type: ADME, organism-based; settings: in vivo, time 0.083-24 hrs
[25] = AUC (0 to 24 hrs) in Sprague-Dawley rat 0.3 mg/kg, iv measured at 0.083 to 24 hrs by LC-MS/MS analysis; type: ADME, organism-based; parameters: time lower 0.083 hrs, dose 0.3 mg/kg, time upper 24 hrs, route iv; settings: in vivo
[26] = Permeability of compound across apical to basolateral side in dog wild type MDCK cells; type: ADME, cell-based, Canis lupus familiaris; settings: read-out: permeability
[27] = Oral bioavailability in Sprague-Dawley rat 3 mg/kg measured at 0.083 to 24 hrs by LC-MS/MS analysis; type: ADME, organism-based; settings: in vivo, time 0.083-24 hrs
[28] = Clearance in Sprague-Dawley rat 0.3 mg/kg, iv measured at 0.083 to 24 hrs by LC-MS/MS analysis; type: ADME, organism-based; settings: in vivo, time 0.083-24 hrs
[29] = Permeability of compound across apical to basolateral side in dog wild type MDCK-MDR1 cells; type: ADME, cell-based, Canis lupus familiaris; settings: read-out: permeability
[30] = Half life in Sprague-Dawley rat 0.3 mg/kg, iv measured at 0.083 to 24 hrs by LC-MS/MS analysis; type: ADME, organism-based; settings: in vivo, time 0.083-24 hrs
[31] = Permeability of compound across basolateral to apical side in dog wild type MDCK-MDR1 cells; type: ADME, cell-based, Canis lupus familiaris; settings: read-out: permeability
[32] = Dissociation constant, pKa of the compound; type: physicochemical
[33] = Permeability of compound across basolateral to apical side in dog wild type MDCK cells; type: ADME, cell-based, Canis lupus familiaris; settings: read-out: permeability
[34] = Clearance in Sprague-Dawley rat 1 mg/kg, iv measured at 0.083 to 24 hrs by LC-MS/MS analysis; type: ADME, organism-based; settings: in vivo, time 0.083-24 hrs
[35] = Volume of distribution at steady state in Sprague-Dawley rat 3 mg/kg, po or 1 mg/kg, iv measured at 0.083 to 24 hrs by LC-MS/MS analysis; type: ADME, organism-based; settings: in vivo, time 0.083-24 hrs
Homo sapiens [36] = species: Homo sapiens; experiment: Binding affinity to human SHP2 E76K mutant assessed as change in enthalpy by isothermal titration calorimetry assay
[37] = Oral bioavailability in Sprague-Dawley rat 3 mg/kg, iv measured at 0.083 to 24 hrs by LC-MS/MS analysis; type: ADME, organism-based; settings: in vivo, time 0.083-24 hrs
[38] = Half life in Sprague-Dawley rat 1 mg/kg, iv measured at 0.083 to 24 hrs by LC-MS/MS analysis; type: ADME, organism-based; settings: in vivo, time 0.083-24 hrs
[39] = AUC (0 to 24 hrs) in Sprague-Dawley rat 1 mg/kg, iv measured at 0.083 to 24 hrs by LC-MS/MS analysis; type: ADME, organism-based; parameters: dose 1 mg/kg, time 0.083-24 hrs, route iv; settings: in vivo
Homo sapiens [40] = species: Homo sapiens; experiment: Binding affinity to human SHP2 E76K mutant assessed as change in entropy by isothermal titration calorimetry assay
[41] = Oral bioavailability in Sprague-Dawley rat 0.3 mg/kg measured at 0.083 to 24 hrs by LC-MS/MS analysis; type: ADME, organism-based; settings: in vivo, time 0.083-24 hrs

bioavailability [1]: 99%
Vd [2]: 3.4 L/kg
clearance [3]: 9.2 mL/min/kg
half-life [4]: 9.4 h
Vd [5]: 2.9 L/kg
bioavailability [6]: 89%
CLint scaled [7]: 0.8 mL/min/kg
Vd [8]: 2.5 L/kg
Vd [9]: 2.6 L/kg
half-life [10]: 8.6 h
CLint scaled [11]: 17 mL/min/kg
CLint scaled [12]: 28 mL/min/kg
half-life [13]: 5.9 h
clearance [14]: 4.2 mL/min/kg
Papp B→A [15]: 32 ×10⁻⁶ cm/s
CLint scaled [16]: 21 mL/min/kg
CLint scaled ([17]; read-out: CL): 0.7 mL/min/kg
clearance [18]: 4.2 mL/min/kg
bioavailability [19]: 106%
Papp A→B [20]: 12 ×10⁻⁶ cm/s
half-life [21]: 3.5 h
bioavailability [22]: 80%
clearance [23]: 5.8 mL/min/kg
Structure (SMILES): Cc1nc(N2CCC3(CC2)CO[C@@H](C)[C@H]3N)cc(=O)n1-c1cccc(Cl)c1Cl (stereo in doubt)

Vdss [24]: 12.9 L/kg
AUC(0-t) [25]: 0.314 µM·h
Papp A→B [26]: 4.2 ×10⁻⁶ cm/s
bioavailability [27]: 38%
clearance [28]: 37 mL/min/kg
Papp A→B [29]: 2.1 ×10⁻⁶ cm/s
half-life [30]: 4.8 h
Papp B→A [31]: 28 ×10⁻⁶ cm/s
pKa [32]: 10.4
Papp B→A [33]: 8 ×10⁻⁶ cm/s
Structure (SMILES): CNc1nccc(-c2n[nH]c3nc(N4CCC(C)(N)CC4)cnc23)c1Cl

Papp A→B [26]: 9 ×10⁻⁶ cm/s
Papp A→B [29]: 6.4 ×10⁻⁶ cm/s
Papp B→A [31]: 10.2 ×10⁻⁶ cm/s
Papp B→A [33]: 10 ×10⁻⁶ cm/s
Structure (SMILES): C[C@@H]1OCC2(CCN(c3cnc4c(-c5cccc(Cl)c5Cl)n[nH]c4n3)CC2)[C@@H]1N

Papp A→B [26]: 12.4 ×10⁻⁶ cm/s
Papp A→B [29]: 8.6 ×10⁻⁶ cm/s
Papp B→A [31]: 40.7 ×10⁻⁶ cm/s
pKa [32]: 9.3
Papp B→A [33]: 25 ×10⁻⁶ cm/s
Structure (SMILES): CCNc1nccc(-c2n[nH]c3nc(N4CCC5(CC4)CO[C@@H](C)[C@H]5N)cnc23)c1Cl

CL [34]: 70%
Vdss [35]: 21 L/kg
deltaH (Homo sapiens [36]): -3.67 kcal/mol
bioavailability [37]: 70%
half-life [38]: 13 h
Papp A→B [26]: 6 ×10⁻⁶ cm/s
Papp A→B [29]: 6 ×10⁻⁶ cm/s
Papp B→A [31]: 8.5 ×10⁻⁶ cm/s
AUC(0-t) [39]: 2 µM·h
pKa [32]: 10.4
Papp B→A [33]: 6.8 ×10⁻⁶ cm/s
-TdeltaS (Homo sapiens [40]): -5.44 kcal/mol
Structure (SMILES): CC1(N)CCN(c2cnc3c(-c4cccc(Cl)c4Cl)n[nH]c3n2)CC1

bioavailability [1]: 119%
Vd [2]: 4.5 L/kg
clearance [3]: 11.6 mL/min/kg
half-life [4]: 7.3 h
Vd [5]: 3.5 L/kg
bioavailability [6]: 53%
CLint scaled [7]: 72 mL/min/kg
Vd [8]: 3.7 L/kg
Vd [9]: 4.6 L/kg
half-life [10]: 5.5 h
CLint scaled [11]: 529 mL/min/kg
CLint scaled [12]: 37 mL/min/kg
half-life [13]: 1.8 h
clearance [14]: 9.2 mL/min/kg
Papp B→A [15]: 19 ×10⁻⁶ cm/s
CLint scaled [16]: 74 mL/min/kg
CLint scaled ([17]; read-out: CLH): 10 mL/min/kg
clearance [18]: 8.3 mL/min/kg
bioavailability [19]: 88%
Papp A→B [20]: 18 ×10⁻⁶ cm/s
half-life [21]: 6 h
bioavailability [22]: 38%
clearance [23]: 41.3 mL/min/kg
Structure (SMILES): Cc1nc(N2CCC3(CC2)CO[C@@H](C)[C@H]3N)c(Cl)c(=O)n1-c1cccc(Cl)c1Cl

CLint scaled [7]: 26 mL/min/kg
bioavailability [41]: 3%
Vdss [24]: 2.2 L/kg
Papp A→B [26]: 0.27 ×10⁻⁶ cm/s
clearance [28]: 12 mL/min/kg
Papp A→B [29]: 0.3 ×10⁻⁶ cm/s
CLint scaled ([17]; read-out: CL): 2 mL/min/kg
half-life [30]: 2.7 h
Papp B→A [31]: 9.5 ×10⁻⁶ cm/s
Papp B→A [33]: 3.64 ×10⁻⁶ cm/s
Structure (SMILES): N[C@@H]1CCCC12CCN(c1nc3[nH]nc(-c4cccc(Cl)c4Cl)c3c(=O)[nH]1)CC2
